Read-outs that look alike come from different tables or passages of the source.
What was measured:
MCF-7 cells = experiment: CellTiter-Glo (CTG) cell proliferation assay in MCF-7 cells; assay type: cell-based; settings: Homo sapiens, MCF7, 144 h, MCF-7 cell proliferation, Day 6
Text: CellTiter-Glo® (CTG) Assays in MCF-7 and T47D Cell Lines.
In vitro Assay: MCF-7 and T47D CTG assay

ER in MCF-7 cells = ER in MCF-7 cells (Homo sapiens (Human), UniProt P03372); experiment: In-cell Western (ICW) ER degradation assay in MCF-7 cells; assay type: cell-based; settings: for DC50: MCF-7, ER degradation, read-out: MCF7 DC50
Sequence of ER in MCF-7 cells (P03372 whole entry): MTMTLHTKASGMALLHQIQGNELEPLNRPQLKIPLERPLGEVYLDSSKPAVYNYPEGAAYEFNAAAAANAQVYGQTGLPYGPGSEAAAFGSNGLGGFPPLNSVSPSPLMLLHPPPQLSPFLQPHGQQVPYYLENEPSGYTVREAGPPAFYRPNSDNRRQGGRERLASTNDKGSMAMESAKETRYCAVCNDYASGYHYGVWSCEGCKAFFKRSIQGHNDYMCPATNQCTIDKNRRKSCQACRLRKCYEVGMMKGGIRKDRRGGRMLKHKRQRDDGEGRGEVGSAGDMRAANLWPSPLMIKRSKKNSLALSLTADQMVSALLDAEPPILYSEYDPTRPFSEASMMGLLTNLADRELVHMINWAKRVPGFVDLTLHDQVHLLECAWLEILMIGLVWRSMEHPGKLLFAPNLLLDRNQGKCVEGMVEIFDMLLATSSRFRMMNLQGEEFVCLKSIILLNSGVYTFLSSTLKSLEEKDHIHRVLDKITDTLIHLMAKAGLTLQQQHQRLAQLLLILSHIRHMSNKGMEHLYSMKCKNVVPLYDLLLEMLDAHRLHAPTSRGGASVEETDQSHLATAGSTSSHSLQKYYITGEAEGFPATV

[1] = MCF7, read-out: MCF7 Dmax, MCF-7, maximal ER degradation, 16 hrs treatment

SMILES	IC50 (MCF-7 cells) [nM]	Dmax (ER in MCF-7 cells; [1]) [%]	DC50 (ER in MCF-7 cells; 16 hrs treatment) [nM]	Dmax (ER in MCF-7 cells; MCF7, MCF-7, maximal ER degradation, 16 hrs treatment, read-out: MCF7 Dmax) [%]
O=C1CC[C@H](N2Cc3c(ccc4c3OCC43CCN(CC4CC5(CCN(c6cnc(C7c8ccc(O)cc8CCC7c7ccccc7)cn6)CC5)C4)CC3)C2=O)C(=O)N1 (stereo partly drawn) [Compound A201, (3S)-3-(1′-((7-(5-(6-hydroxy-2-phenyl-1,2,3,4-tetrahydro-naphthalen-1-yl)pyrazin-2-yl)-7-azaspiro[3.5]nonan-2-yl)-methyl)-6-oxo-6,8-dihydro-2H, 7H-spiro[furo[2,3-e]isoindole-3,4′-piperidin]-7-yl)piperidine-2,6-dione]	> 100	50 to 75	< 1	
COc1cc(N2CC(CCN3CCC4(CC3)COc3cc5c(cc34)CN([C@H]3CCC(=O)NC3=O)C5=O)C2)c(F)cc1[C@@H]1c2ccc(O)cc2CC[C@@H]1c1ccccc1 [Compound A205, (S)-3-(1′-(2-(1-(2-fluoro-4-((1S,2S)-6-hydroxy-2-phenyl-1,2,3,4-tetrahydronaphthalen-1-yl)-5-methoxyphenyl)-azet-idin-3-yl)ethyl)-7-oxo-5,7-dihydro-2H,6H-spiro[furo[2,3-f]isoindole-3,4′-piperidin]-6-yl)piperidine-2,6-dione]	> 100	25 to 50	1 to 10	
COc1cc(N2CCC(CCN3CCC4(CC3)COc3c4cc4c(c3Cl)C(=O)N([C@H]3CCC(=O)NC3=O)C4)CC2)c(F)cc1[C@@H]1c2ccc(O)cc2CC[C@@H]1c1ccccc1 [Compound A217, (S)-3-(8-chloro-1′-(2-(1-(2-fluoro-4-((1S,2S)-6-hydroxy-2-phenyl-1,2,3,4-tetrahydronaph-thalen-1-yl)-5-methoxyphenyl)-piperidin-4-yl)ethyl)-7-oxo-5,7-dihydro-2H,6H-spiro[furo[2,3-f]isoindole-3,4′-piperidin]-6-yl)piperidine-2,6-dione]	< 10			
COc1c([C@@H]2c3ccc(O)cc3CC[C@@H]2c2ccccc2)ccc(N2CCC3(CC2)CC(CN2CCC4(CC2)COc2c4ccc4c2CN([C@H]2CCC(=O)NC2=O)C4=O)C3)c1F [Compound A198, (S)-3-(1′-((7-(2-fluoro-4-((1S, 2S)-6-hydroxy-2-phenyl-1,2,3,4-tetrahydronaphthalen-1-yl)-3-methoxyphenyl)-7-aza-spiro[3.5]nonan-2-yl)methyl)-6-oxo-6,8-dihydro-2H,7H-spiro[furo[2,3-e]isoindole-3,4′-piperidin]-7-yl)piperidine-2,6-dione]	10 to 100	50 to 75	< 1	
COc1c([C@@H]2c3ccc(O)cc3CC[C@@H]2c2ccccc2)ccc(N2CCC3(CC2)CC(CN2CCN4c5cc6c(cc5OC[C@@H]4C2)C(=O)N([C@H]2CCC(=O)NC2=O)C6)C3)c1F [Compound A197, (S)-3-((S)-3-((7-(2-fluoro-4-((1S,2S)-6-hydroxy-2-phenyl-1,2,3,4-tetrahydronaphthalen-1-yl)-3-methoxyphenyl)-7-aza-spiro[3.5]nonan-2-yl)methyl)-8-oxo-1,2,3,4,4a,5,8,10-octa-hydro-9H-pyrazino[1′,2′:4,5] [1,4]oxazino[2,3-f]isoindol-9-yl)piperidine-2,6-dione]	10 to 100		< 1	> 75
COc1cc(N2CCC(CCN3CCC4(CC3)COc3c4cc(C)c4c3CN([C@H]3CCC(=O)NC3=O)C4=O)CC2)c(F)cc1[C@@H]1c2ccc(O)cc2CC[C@@H]1c1ccccc1 [Compound A213, (S)-3-(1′-(2-(1-(2-fluoro-4-((1S,2S)-6-hydroxy-2-phenyl-1,2,3,4-tetrahydronaphthalen-1-yl)-5-methoxyphenyl)piper-idin-4-yl)ethyl)-5-methyl-6-oxo-6,8-dihydro-2H,7H-spiro [furo[2,3-e]isoindole-3,4′-piperidin]-7-yl)piperidine-2,6-dione]	< 10			
COc1cc(N2CCC3(CC2)CC(CN2CCC4(CC2)COc2c4cc(OC)c4c2CN([C@@H]2CCC(=O)NC2=O)C4=O)C3)c(F)cc1[C@@H]1c2ccc(O)cc2CC[C@@H]1c1ccccc1 [Compound A223, (R)-3-(1′-((7-(2-fluoro-4-((1S,2S)-6-hydroxy-2-phenyl-1,2,3,4-tetrahydronaphthalen-1-yl)-5-methoxyphenyl)-7-azaspiro[3.5]nonan-2-yl)methyl)-5-methoxy-6-oxo-6,8-dihydro-2H,7H-spiro[furo[2,3-e]isoindole-3,4′-piperidin]-7-yl)piperidine-2,6-dione]	< 10			
COc1cc(N2CCC3(CC2)C[C@H](CN2CCC4(CC2)COc2c4cc(C)c4c2CN([C@H]2CCC(=O)NC2=O)C4=O)CO3)c(F)cc1[C@@H]1c2ccc(O)cc2CC[C@@H]1c1ccccc1 [Compound A208, (3S)-3-[1′-[[(3R)-8-[2-fluoro-4-[(1S,2S)-6-hydroxy-2-phenyl-tetralin-1-yl]-5-methoxy-phenyl]-1-oxa-8-azaspiro[4.5]decan-3-yl]methyl]-5-methyl-6-oxo-spiro[2,8-dihydrofuro[2,3-e]isoindole-3,4′-piperidine]-7-yl]piperidine-2,6-dione]	10 to 100			
COc1cc(N2CCC3(CC2)CC(CN2CCN4c5cc(C)c6c(c5OC[C@H]4C2)CN([C@H]2CCC(=O)NC2=O)C6=O)C3)c(F)cc1[C@@H]1c2ccc(O)cc2CC[C@@H]1c1ccccc1 [Compound A228, (S)-3-((R)-7-((7-(2-fluoro-4-((1S,2S)-6-hydroxy-2-phenyl-1,2,3,4-tetrahydronaphthalen-1-yl)-5-methoxyphenyl)-7-aza-spiro[3.5]nonan-2-yl)methyl)-12-methyl-1-oxo-1,3,5,5a,6,7,8,9-octahydro-2H-pyrazino [1′,2′:4,5][1,4]oxazino[2,3-e]isoindol-2-yl)piperidine-2,6-dione]	10 to 100			
COc1cc(N2CCC(CCN3CCC4(CC3)COc3c4cc(OC)c4c3CN([C@@H]3CCC(=O)NC3=O)C4=O)CC2)c(F)cc1[C@@H]1c2ccc(O)cc2CC[C@@H]1c1ccccc1 [Compound A225, (R)-3-(1′-(2-(1-(2-fluoro-4-((1S,2S)-6-hydroxy-2-phenyl-1,2,3,4-tetrahydronaphthalen-1-yl)-5-methoxyphenyl)piperidin-4-yl)ethyl)-5-methoxy-6-oxo-6,8-dihydro-2H,7H-spiro[furo[2,3-e]isoindole-3,4′-piperidin]-7-yl)piperidine-2,6-dione]	< 10			
Cc1cc2c(c3c1C(=O)N([C@H]1CCC(=O)NC1=O)C3)OCC21CCN(CC2CC3(CCN(c4ccc([C@@H]5c6ccc(O)cc6CC[C@@H]5c5ccccc5)cc4)CC3)C2)CC1 [Compound A214, (S)-3-(1′-((7-(4-((1R,2S)-6-hydroxy-2-phenyl-1,2,3,4-tetra-hydronaphthalen-1-yl)phenyl)-7-azaspiro[3.5]nonan-2-yl)-methyl)-5-methyl-6-oxo-6,8-dihydro-2H,7H-spiro[furo[2,3-c]isoindolc-3,4′-pipcridin]-7-yl)piperidine-2,6-dione]	< 10			
Cc1cc2c(c3c1C(=O)N([C@H]1CCC(=O)NC1=O)C3)OCC21CCN(C[C@@H]2CCC3(CCN(c4ccc([C@@H]5c6ccc(O)cc6CC[C@@H]5c5ccccc5)cc4)CC3)OC2)CC1 [Compound A209, (S)-3-(1′-(((S)-9-(4-((1R,2S)-6-hydroxy-2-phenyl-1,2,3,4-tetrahydronaphthalen-1-yl)phenyl)-1-oxa-9-azaspiro[5.5]undecan-3-yl)methyl)-5-methyl-6-oxo-6,8-dihydro-2H,7H-spiro[furo[2,3-e]isoindole-3,4′-piperidin]-7-yl)piperidine-2,6-dione]	< 10			
COc1cc(N2CCC3(CC2)CC(CN2CCC4(CC2)COc2c4cc4c(c2C)C(=O)N([C@H]2CCC(=O)NC2=O)C4)C3)c(F)cc1[C@@H]1c2ccc(O)cc2CC[C@@H]1c1ccccc1 [Compound A220, (S)-3-(1′-((7-(2-fluoro-4-((1S,2S)-6-hydroxy-2-phenyl-1,2,3,4-tetrahydronaphthalen-1-yl)-5-methoxyphenyl)-7-aza-spiro[3.5]nonan-2-yl)methyl)-8-methyl-7-oxo-5,7-dihydro-2H,6H-spiro[furo[2,3-f]iso-indole-3,4′-piperidin]-6-yl)-piperidine-2,6-dione]	< 10			
COc1cc(N2CCC3(CC2)CC(CN2CCC4(CC2)COc2c4cc4c(c2C)C(=O)N([C@@H]2CCC(=O)NC2=O)C4)C3)c(F)cc1[C@@H]1c2ccc(O)cc2CC[C@@H]1c1ccccc1 [Compound A219, (R)-3-(1′-((7-(2-fluoro-4-((1S, 2S)-6-hydroxy-2-phenyl-1,2,3,4-tetrahydronaphthalen-1-yl)-5-methoxyphenyl)-7-aza-spiro[3.5]nonan-2-yl)methyl)-8-methyl-7-oxo-5,7-dihydro-2H,6H-spiro[furo[2,3-f]iso-indole-3,4′-piperidin]-6-yl)-piperidine-2,6-dione]	< 10			
COc1cc(N2CCC(CCN3CCN4c5cc(Cl)c6c(c5OC[C@H]4C3)CN([C@H]3CCC(=O)NC3=O)C6=O)CC2)c(F)cc1[C@@H]1c2ccc(O)cc2CC[C@@H]1c1ccccc1 [Compound A224, (S)-3-((R)-12-chloro-7-(2-(1-(2-fluoro-4-((1S,2S)-6-hydroxy-2-phenyl-1,2,3,4-tetrahydronaphthalen-1-yl)-5-methoxyphenyl)piperidin-4-yl)ethyl)-1-oxo-1,3,5,5a,6,7,8,9-octahydro-2H-pyrazino[1′,2′: 4,5][1,4]oxazino[2,3-e]isoindol-2-yl)piperidine-2,6-dione]	10 to 100			
COc1cc(N2CCC3(CC2)CC(CN2CCN4c5cc(Cl)c6c(c5OC[C@H]4C2)CN([C@H]2CCC(=O)NC2=O)C6=O)C3)c(F)cc1[C@@H]1c2ccc(O)cc2CC[C@@H]1c1ccccc1 [Compound A221, (S)-3-((R)-12-chloro-7-((7-(2-fluoro-4-((1S,2S)-6-hydroxy-2-phenyl-1,2,3,4-tetrahydronaph-thalen-1-yl)-5-methoxyphenyl)-7-azaspiro[3.5]nonan-2-yl)-methyl)-1-oxo-1,3,5,5a,6,7,8,9-octahydro-2H-pyrazino[1′,2′: 4,5][1,4]oxazino[2,3-e]isoindol-2-yl)piperidine-2,6-dione]	> 100			

Reference: US20260028354A1, “TETRAHYDRONAPHTHALENE DERIVATIVES AS ESTROGEN RECEPTOR DEGRADERS” (REGENT OF THE UNIVERSITY OF MICHIGAN, priority 2022, published 2026)
